Patent US20260092061A1, “COMPOUNDS FOR TARGETED PROTEIN DEGRADATION” (Amphista Therapeutics Limited, priority 2022, published 2026)

Key:
[1] = target: T1, BRD9 (Homo sapiens, UniProt Q9H8M2); assay: Degradation of BRD9 (IF), immunofluorescence in MV4-11 cells, 24 hours (Assay Protocol 2); type: cell-based; design: A suspension of MV4-11 cells (ATCC CRL-9591) was prepared; host or cells: MV4-11
T1 sequence (Q9H8M2 1-597): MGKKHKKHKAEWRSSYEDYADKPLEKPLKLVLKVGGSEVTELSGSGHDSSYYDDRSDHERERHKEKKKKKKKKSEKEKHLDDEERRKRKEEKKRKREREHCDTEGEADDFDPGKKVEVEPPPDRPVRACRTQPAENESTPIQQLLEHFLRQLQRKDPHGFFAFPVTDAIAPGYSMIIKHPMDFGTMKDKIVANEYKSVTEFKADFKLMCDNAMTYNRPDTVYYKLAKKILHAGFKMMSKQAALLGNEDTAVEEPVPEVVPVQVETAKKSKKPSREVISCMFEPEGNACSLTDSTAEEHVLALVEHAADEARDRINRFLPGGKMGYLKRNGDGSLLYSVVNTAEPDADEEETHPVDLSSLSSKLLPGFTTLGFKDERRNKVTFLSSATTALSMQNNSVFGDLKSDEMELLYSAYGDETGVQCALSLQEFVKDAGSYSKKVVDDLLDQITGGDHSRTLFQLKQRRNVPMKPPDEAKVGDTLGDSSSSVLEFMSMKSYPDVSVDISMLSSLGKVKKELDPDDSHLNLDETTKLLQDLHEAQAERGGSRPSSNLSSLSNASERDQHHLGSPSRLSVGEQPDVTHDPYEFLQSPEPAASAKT
In short: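 % BRD9 remaining, scaled between DMSO (high) and 100 nM CFT-8634 (low) control wells, derives from mean Alexa 647 contrast in central nuclei by high-content imaging. MV4-11 cells had 24 h compound exposure at 37° C. before PFA fixation, Triton permeabilisation and anti-BRD9 E4Q3F immunostaining.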

[2] = target: T1, BRD9; assay: BRD9 degradation, HiBiT-BRD9 KI HEK293 (LgBiT) cells, NanoGlo Lytic Endpoint assay (Assay Protocol 1); type: cell-based; settings: BRD9 degradation; for Dmax at 1 µM / Dmax: HEK293; for Dmax at 1 µM: 1 μM compound at 6 h of treatment, read-out: Assay 1 Dmax; for Dmax: read-out: Dmax
In short: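 HiBiT-tagged BRD9 knock-in HEK293 (LgBiT) cells exposed to compounds for 6 h at 37 °C, 5% CO2. Residual BRD9 measured by HiBiT lytic luminescence. % BRD9 remaining normalised to DMSO-treated cells (high) and no-cell wells (low).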

[3] = MV4-11, 24 h, Table 2, BRD9 degradation (IF), Assay Protocol 2, MV4-11 cells, read-out: Assay 2 DCmax
[4] = Table 2, BRD9 degradation (IF), Assay Protocol 2, MV4-11 cells, read-out: Assay 2 DC50
[5] = Table 2, Assay Protocol 1, 6 h of treatment, read-out: Assay 1 DC50
[6] = Assay protocol 2, BRD9 degradation, read-out: DC50
[7] = MV4-11, Assay protocol 2, BRD9 degradation, read-out: Dmax
[8] = Assay protocol 1, read-out: DC50

| Structure (SMILES) | Dmax [1, 3] | DC50 [1, 4] | Dmax at 1 µM ([2]; Table 2, Assay Protocol 1) | DC50 [2, 5] | DC50 [1, 6] | Dmax [1, 7] | Dmax ([2]; Assay protocol 1) | DC50 [2, 8] |
| --- | --- | --- | --- | --- | --- | --- | --- | --- |
| COc1cc(-c2cn(C)c(=O)c3cnccc23)cc(OC)c1CN1CC2CCC(C1)N2Cc1cccc2c1CCN(C(=O)/C(C#N)=C/C(C)(C)C)C2C (mixture of isomers) [Compound A48, (E/Z)-2-(5-((3-(2,6-dimethoxy-4-(2-methyl-1-oxo-1,2-dihydro-2,7-naphthyridin-4-yl)benzyl)-3,8-diazabicyclo[3.2.1]octan-8-yl)methyl)-1-methyl-1,2,3,4-tetrahydroisoquinoline-2-carbonyl)-4,4-dimethylpent-2-enenitrile] | 40 to 70% | < 1.25 nM | > 75% | 1.25 to 10 nM |  |  |  |  |
| COc1cc(-c2cn(C)c(=O)c(C)c2C)cc(OC)c1CN1CCN(Cc2cccc3c2CCN(C(=O)/C(C#N)=C/C2(C)COC2)C3C)CC1 (mixture of isomers) [Compound A51, (E/Z)-2-[5-[[4-[[2,6-dimethoxy-4-(1,4,5-trimethyl-6-oxo-3-pyridyl)phenyl]methyl]piperazin-1-yl]methyl]-1-methyl-3,4-dihydro-1H-isoquinoline-2-carbonyl]-3-(3-methyloxetan-3-yl)prop-2-enenitrile] | 40 to 70% | < 1.25 nM | 40 to 70% | 1.25 to 10 nM |  |  |  |  |
| COc1cc(-c2cn(C)c(=O)c(C)c2C)cc(OC)c1CN1CCN(Cc2cccc3c2CCN(C(=O)/C(C#N)=C/c2cccc(C(F)(F)F)n2)C3C)CC1 (mixture of isomers) [Compound A53, (E/Z)-2-(5-((4-(2,6-dimethoxy-4-(1,4,5-trimethyl-6-oxo-1,6-dihydropyridin-3-yl)benzyl)piperazin-1-yl)methyl)-1-methyl-1,2,3,4-tetrahydroisoquinoline-2-carbonyl)-3-(6-(trifluoromethyl)pyridin-2-yl)acrylonitrile] | 40 to 70% |  | 40 to 70% | 1.25 to 10 nM |  |  |  |  |
| COc1cc(-c2cn(C)c(=O)c3cnccc23)cc(OC)c1CN(C)Cc1ccc2c(c1)CCN(C(=O)/C(C#N)=C/c1cccc(Br)n1)C2C (mixture of isomers) [Compound A66] | > 75% | < 1.25 nM | 40 to 70% | < 1.25 nM |  |  |  |  |
| COc1cccc(/C=C(\C#N)C(=O)N2CCc3c(CN4CCN(Cc5c(OC)cc(-c6cn(C)c(=O)c(C)c6C)cc5OC)CC4)cccc3C2C)n1 (mixture of isomers) [Compound A67, (E/Z)-2-(5-((4-(2,6-dimethoxy-4-(1,4,5-trimethyl-6-oxo-1,6-dihydropyridin-3-yl)benzyl)piperazin-1-yl)methyl)-1-methyl-1,2,3,4-tetrahydroisoquinoline-2-carbonyl)-3-(6-methoxypyridin-2-yl)acrylonitrile] | 40 to 70% |  | 40 to 70% | 1.25 to 10 nM |  |  |  |  |
| COc1cc(-c2cn(C)c(=O)c(C)c2C)cc(OC)c1CN1CC2CC1CN2Cc1cccc2c1CCN(C(=O)/C(C#N)=C/C(C)(C)C)C2C (mixture of isomers) [Compound A70, (E/Z)-2-(5-((5-(2,6-dimethoxy-4-(1,4,5-trimethyl-6-oxo-1,6-dihydropyridin-3-yl)benzyl)-2,5-diazabicyclo[2.2.1]heptan-2-yl)methyl)-1-methyl-1,2,3,4-tetrahydroisoquinoline-2-carbonyl)-4,4-dimethylpent-2-enenitrile] | 70 to 75% | < 1.25 nM | 40 to 70% | 10 to 25 nM |  |  |  |  |
| COc1cc(-c2cn(C)c(=O)c3cc(C(=O)NCCOc4ccc5c(c4)CCN(C(=O)/C(C#N)=C/c4nccs4)C5C)sc23)cc(OC)c1CN(C)C (mixture of isomers) [Compound A74] | 40 to 70% | 1.25 to 10 nM | 40 to 70% | 25 to 300 nM |  |  |  |  |
| COc1cc(-c2cn(C)c(=O)c3cc(C(=O)NCCCCCOc4ccc5c(c4)CCN(C(=O)/C(C#N)=C/c4nccs4)C5C)sc23)cc(OC)c1CN(C)C (mixture of isomers) [Compound A75, (E/Z)—N-(5-((2-(2-cyano-3-(thiazol-2-yl)acryloyl)-1-methyl-1,2,3,4-tetrahydroisoquinolin-6-yl)oxy)pentyl)-7-(4-((dimethylamino)methyl)-3,5-dimethoxyphenyl)-5-methyl-4-oxo-4,5-dihydrothieno[3,2-c]pyridine-2-carboxamide] | > 75% | 1.25 to 10 nM | 40 to 70% | 25 to 300 nM |  |  |  |  |
| COc1cc(-c2cn(C)c(=O)c3cc(C(=O)NCCCCCOc4cccc(C5CCCN5C(=O)/C(C#N)=C/c5nccs5)c4)sc23)cc(OC)c1CN(C)C (mixture of isomers) [Compound A76, (E/Z)—N-(5-(3-(1-(2-cyano-3-(thiazol-2-yl)acryloyl)pyrrolidin-2-yl)phenoxy)pentyl)-7-(4-((dimethylamino)methyl)-3,5-dimethoxyphenyl)-5-methyl-4-oxo-4,5-dihydrothieno[3,2-c]pyridine-2-carboxamide] | 70 to 75% | < 1.25 nM | 40 to 70% | 25 to 300 nM |  |  |  |  |
| COc1cc(-c2cn(C)c(=O)c(C)c2C)cc(OC)c1CN1CC2CCC(C1)N2Cc1cccc2c1CCN(C(=O)/C(C#N)=C/C(C)(C)C)C2C (mixture of isomers) [Compound B3, (E/Z)-2-(5-((3-(2,6-dimethoxy-4-(1,4,5-trimethyl-6-oxo-1,6-dihydropyridin-3-yl)benzyl)-3,8-diazabicyclo[3.2.1]octan-8-yl)methyl)-1-methyl-1,2,3,4-tetrahydroisoquinoline-2-carbonyl)-4,4-dimethylpent-2-enenitrile] |  |  |  |  | 10 to 25 nM | > 75% | > 75% | 10 to 25 nM |

Results, then the compound that gave them:

| Dmax [1, 3] | DC50 [1, 4] | Dmax at 1 µM ([2]; Table 2, Assay Protocol 1) | DC50 [2, 5] | DC50 [1, 6] | Dmax [1, 7] | Dmax ([2]; Assay protocol 1) | DC50 [2, 8] | Structure (SMILES) |
| --- | --- | --- | --- | --- | --- | --- | --- | --- |
|  |  |  |  | < 1.25 nM | 40 to 70% | 40 to 70% |  | COc1cc(-c2cn(C)c(=O)c(C)c2C)cc(OC)c1CN1CCN(Cc2cccc3c2CCN(C(=O)/C(C#N)=C/C2CC(F)(F)C2)C3C)CC1 (mixture of isomers) [Compound B1, (E/Z)-3-(3,3-difluorocyclobutyl)-2-(5-((4-(2,6-dimethoxy-4-(1,4,5-trimethyl-6-oxo-1,6-dihydropyridin-3-yl)benzyl)piperazin-1-yl)methyl)-1-methyl-1,2,3,4-tetrahydroisoquinoline-2-carbonyl)acrylonitrile] |
|  |  |  |  | 1.25 to 10 nM | 70 to 75% | > 75% | 1.25 to 10 nM | COc1cc(-c2cn(C)c(=O)c(C)c2C)cc(OC)c1CN1CCCN(Cc2cccc3c2CCN(C(=O)/C(C#N)=C/c2cccc(Br)n2)C3C)CC1 (mixture of isomers) [Compound B2, (E/Z)-3-(6-bromopyridin-2-yl)-2-(5-((4-(2,6-dimethoxy-4-(1,4,5-trimethyl-6-oxo-1,6-dihydropyridin-3-yl)benzyl)-1,4-diazepan-1-yl)methyl)-1-methyl-1,2,3,4-tetrahydroisoquinoline-2-carbonyl)acrylonitrile] |
|  |  |  |  | 1.25 to 10 nM | 40 to 70% | 40 to 70% | 1.25 to 10 nM | COc1cc(-c2cn(C)c(=O)c(C)c2C)cc(OC)c1CN1CCN(Cc2cccc3c2CCN(C(=O)/C(C#N)=C/c2cc(C)on2)C3C)CC1 (mixture of isomers) [Compound B4, (E/Z)-2-(5-((4-(2,6-dimethoxy-4-(1,4,5-trimethyl-6-oxo-1,6-dihydropyridin-3-yl)benzyl)piperazin-1-yl)methyl)-1-methyl-1,2,3,4-tetrahydroisoquinoline-2-carbonyl)-3-(5-methylisoxazol-3-yl)acrylonitrile] |
|  |  |  |  | < 1.25 nM | > 75% | > 75% | 1.25 to 10 nM | COc1cc(-c2cn(C)c(=O)c(C)c2C)cc(OC)c1CN(C)Cc1ccc2c(c1)C(C)N(C(=O)/C(C#N)=C/c1cccc(Br)n1)CC2 (mixture of isomers) [Compound B5, (E/Z)-3-(6-bromopyridin-2-yl)-2-(7-(((2,6-dimethoxy-4-(1,4,5-trimethyl-6-oxo-1,6-dihydropyridin-3-yl)benzyl)(methyl)amino)methyl)-1-methyl-1,2,3,4-tetrahydroisoquinoline-2-carbonyl)acrylonitrile] |
